Key:
[1] = system: HCV subgenomic replicon genotype 1a H77; assay: HCV replicon assay, transient transfection, genotype 1a H77 (Huh-7 lunet, luciferase readout); format: cell-based, HCV genotype 1a H77; conditions: Hepatitis C virus, 48 h, Huh-7 lunet transiently transfected, genotype 1a H77, two days incubation
Excerpt: (§1) In a transient set-up, a Huh-7 lunet hepatoma cell line was transiently transfected with an autonomously replicating RNA encoding a bi-cistronic expression construct. This construct comprises a firefly luciferase reporter gene preceding the NS3-NS5B subgenomic region of HCV (genotype 1a H77 or 1b Con1). Translation of the HCV subgenomic region is mediated by an internal ribosome entry site of encephalomyocarditis virus. The construct is furthermore flanked by 5′ and 3′ untranslated regions of HCV (genotype 1a H77 or 1b Con1, respectively), which allow for replication of the RNA.
(§2) Cells were plated in 384 well plates in the presence of test and control compounds, which were added in various concentrations. Following an incubation of two days, replication of the HCV subgenomic replicon RNA was measured by assaying luciferase activity (using standard luciferase assay substrates and reagents and a Perkin Elmer ViewLux™ ultraHTS microplate imager). HCV subgenomic replicon containing cells in the control cultures have high luciferase expression in the absence of any inhibitor. The inhibitory activity of the compound was monitored, enabling a dose-response curve for each test compound. EC50 values were then calculated, which represent the amount of compound required to decrease the level of detected luciferase activity by 50%, or more specifically, to reduce the ability of the genetically linked HCV subgenomic RNA to replicate.

[2] = system: HCV subgenomic replicon genotype 1b Con1; assay: HCV replicon assay, transient transfection, genotype 1b Con1 (Huh-7 lunet, luciferase readout); format: cell-based, HCV genotype 1b Con1; conditions: Hepatitis C virus, 48 h, Huh-7 lunet transiently transfected, genotype 1b Con1, two days incubation
Excerpt: as §1, §2

[3] = system: HCV replicon type 1b in Huh-Luc cells; assay: HCV replicon assay, stable transfection (Huh-7 luc/neo, luciferase readout); format: cell-based, HCV type 1b; conditions: Hepatitis C virus, Huh-7, 72 h, stably transfected Huh-Luc cells, genotype 1b, three days incubation, average if tested more than once, read-out: HCV-REP-HUH7LUC_EC50
Excerpt: The compounds of formula (I) were examined for inhibitory activity in the HCV replicon. This cellular assay is based on a bicistronic expression construct, as described by Lohmann et al. (Science (1999) 285: 110-113; Journal of Virology (2003) 77: 3007-3019) with modifications described by Krieger et al. (Journal of Virology (2001) 75: 4614-4624), and Lohmann et al. (Journal of Virology (2003) 77: 3007-3019) for genotype 1b and by Yi et al. (Journal of Virology (2004) 78: 7904-7915) for genotype 1a, in a multi-target screening strategy.
The method was as follows. The assay utilized the stably transfected cell line Huh-7 luc/neo (hereafter referred to as Huh-Luc). This cell line harbors an RNA encoding a bicistronic expression construct comprising the wild type NS3-NS5B regions of HCV type 1b translated from an Internal Ribosome Entry Site (IRES) from encephalomyocarditis virus (EMCV), preceded by a reporter portion (FfL-luciferase), and a selectable marker portion (neoR, neomycine phosphotransferase). The construct is flanked by 5′ and 3′ NTRs (non-translated regions) from HCV type 1b. Continued culture of the replicon cells in the presence of G418 (neoR) is dependent on the replication of the HCV RNA. The stably transfected replicon cells that replicate HCV RNA autonomously and to high levels, encoding inter alia luciferase, were used for screening the antiviral compounds.
The replicon cells were plated in 384 well plates in the presence of the test and control compounds which were added in various concentrations. Following an incubation of three days, HCV replication was measured by assaying luciferase activity (using standard luciferase assay substrates and reagents and a Perkin Elmer ViewLux™ ultraHTS microplate imager). Replicon cells in the control cultures have high luciferase expression in the absence of any inhibitor. The inhibitory activity of the compound was monitored on the Huh-Luc cells, enabling a dose-response curve for each test compound. EC50 values were then calculated, which represent the amount of compound required to decrease the level of detected luciferase activity by 50%, or more specifically, to reduce the ability of the genetically linked HCV replicon RNA to replicate.
Where a compound of formula (I) was tested more than once in the replicon assay, the average of all test results is given in this Table 1.

[4] = Counterscreen MT4-LTR-Luc; format: cell-based; conditions: human; counterscreen cell line MT4-LTR-Luc
Excerpt: (§3) The in vitro antiviral activity against HCV of the compounds of formula I can be tested in a cellular HCV replicon system based on Lohmann et al. (1999) Science 285:110-113, with the further modifications described by Krieger et al. (2001) Journal of Virology 75: 4614-4624 and Lohmann et al. (2003) Journal of Virology 77: 3007-3019 for genotype 1b and by Yi et al. (2004) Journal of Virology 78: 7904-7915 for genotype 1a (incorporated herein by reference), which is further exemplified in the examples section. This model, while not a complete infection model for HCV, is widely accepted as the most robust and efficient model of autonomous HCV RNA replication currently available. It will be appreciated that it is important to distinguish between compounds that specifically interfere with HCV functions from those that exert cytotoxic or cytostatic effects in the HCV replicon model, and as a consequence cause a decrease in HCV RNA or linked reporter enzyme concentration. Assays are known in the field for the evaluation of cellular cytotoxicity based for example on the activity of mitochondrial enzymes using fluorogenic redox dyes such as resazurin. Furthermore, cellular counter screens exist for the evaluation of non-selective inhibition of linked reporter gene activity, such as firefly luciferase. Appropriate cell types can be equipped by stable transfection with a luciferase reporter gene whose expression is dependent on a constitutively active gene promoter, and such cells can be used as a counter-screen to eliminate non-selective inhibitors.
(§4) Counterscreen cell lines included a Huh-7 hepatoma cell line containing a human cytomegalovirus major immediate-early promoter-Luc construct (Huh7-CMV-Luc) and an MT4 T-cell line containing a long terminal repeat-Luc reporter (MT4-LTR-Luc).

[5] = Counterscreen Huh7-CMV-Luc; format: cell-based; conditions: human; counterscreen cell line Huh7-CMV-Luc
Excerpt: as §3, §4

## COC(=O)N[C@H](C(=O)N1CC2(C[C@H]1c1nc3cc(-c4ccc5cc(-c6cnc([C@@H]7C[C@H]8C[C@H]8N7C(=O)[C@@H](NC(=O)OC)C(C)C)[nH]6)ccc5c4)ccc3c(=O)[nH]1)OCCCO2)C(C)C [Compound 1]
[1]
  EC50: 0.79 nM
[2]
  EC50: 0.029 nM
[3]
  EC50: 0.026 nM
[4]
  CC50: > 980 nM
[5]
  CC50: > 980 nM

## COC(=O)N[C@H](C(=O)N1CC2(C[C@H]1c1ncc(-c3ccc4cc(-c5ccc6c(=O)[nH]c([C@@H]7CC8(CN7C(=O)[C@@H](NC(=O)OC)C(C)C)OCCO8)nc6c5)ccc4c3)[nH]1)OCCO2)C(C)C [Compound 2]
[1]
  EC50: 1.4 nM
[2]
  EC50: 0.033 nM
[3]
  EC50: 0.018 nM
[4]
  CC50: > 980 nM
[5]
  CC50: > 980 nM

## COC(=O)N[C@H](C(=O)N1[C@@H]2C[C@@H]2C[C@H]1c1ncc(-c2ccc3cc(-c4ccc5c(=O)[nH]c([C@@H]6C[C@H]7C[C@H]7N6C(=O)[C@@H](NC(=O)OC)C(C)C)nc5c4)ccc3c2)[nH]1)C(C)C [Compound 3]
[1]
  EC50: 0.16 nM
[2]
  EC50: 0.012 nM
[3]
  EC50: 0.017 nM
[4]
  CC50: > 980 nM
[5]
  CC50: > 980 nM

## COC(=O)N[C@H](C(=O)N1CC2(C[C@H]1c1ncc(-c3ccc4cc(-c5ccc6c(=O)[nH]c([C@@H]7C[C@H]8C[C@H]8N7C(=O)[C@@H](NC(=O)OC)C(C)C)nc6c5)ccc4c3)[nH]1)OCCO2)C(C)C [Compound 4]
[1]
  EC50: 0.103 nM
[2]
  EC50: 0.013 nM
[3]
  EC50: 0.008 nM
[4]
  CC50: > 980 nM
[5]
  CC50: > 980 nM

## COC(=O)N[C@H](C(=O)N1CC2(C[C@H]1c1ncc(-c3ccc4cc(-c5ccc6c(=O)[nH]c([C@@H]7CCCN7C(=O)[C@@H](NC(=O)OC)C(C)C)nc6c5)ccc4c3)[nH]1)OCCO2)C(C)C [Compound 5]
[1]
  EC50: 0.677 nM
[2]
  EC50: 0.025 nM
[3]
  EC50: 0.025 nM
[4]
  CC50: > 980 nM
[5]
  CC50: > 980 nM

## COC(=O)N[C@H](C(=O)N1[C@@H]2C[C@@H]2C[C@H]1c1ncc(-c2ccc3cc(-c4ccc5c(=O)[nH]c([C@@H]6C[C@@H]7CCCC[C@@H]7N6C(=O)[C@@H](NC(=O)OC)C(C)C)nc5c4)ccc3c2)[nH]1)C(C)C [Compound 7]
[1]
  EC50: 0.546 nM
[2]
  EC50: 0.006 nM
[3]
  EC50: 0.008 nM
[4]
  CC50: > 980 nM
[5]
  CC50: > 980 nM

## COC(=O)N[C@H](C(=O)N1CC2(C[C@H]1c1ncc(-c3ccc4cc(-c5ccc6c(=O)[nH]c([C@@H]7C[C@@H]8CCCC[C@@H]8N7C(=O)[C@@H](NC(=O)OC)C(C)C)nc6c5)ccc4c3)[nH]1)OCCO2)C(C)C [Compound 9]
[1]
  EC50: 0.216 nM
[2]
  EC50: 0.006 nM
[3]
  EC50: 0.008 nM
[4]
  CC50: > 980 nM
[5]
  CC50: > 980 nM

## COC(=O)N[C@H](C(=O)N1CCC[C@H]1c1nc2cc(-c3ccc4cc(-c5cnc([C@@H]6C[C@H]7C[C@H]7N6C(=O)[C@@H](NC(=O)OC)C(C)C)[nH]5)ccc4c3)ccc2c(=O)[nH]1)C(C)C [Compound 10]
[1]
  EC50: 0.341 nM
[2]
  EC50: 0.005 nM
[3]
  EC50: 0.006 nM
[4]
  CC50: > 980 nM
[5]
  CC50: > 980 nM

## COC(=O)N[C@H](C(=O)N1[C@@H]2CC[C@@H](C2)[C@H]1c1nc2cc(-c3ccc4cc(-c5cnc([C@@H]6C[C@H]7C[C@H]7N6C(=O)[C@@H](NC(=O)OC)C(C)C)[nH]5)ccc4c3)ccc2c(=O)[nH]1)C(C)C [Compound 12]
[1]
  EC50: 12.5 nM
[2]
  EC50: 0.109 nM
[3]
  EC50: 0.27 nM
[4]
  CC50: > 980 nM
[5]
  CC50: > 980 nM

## COC(=O)N[C@H](C(=O)N1CC2(CC2)C[C@H]1c1ncc(-c2ccc3cc(-c4ccc5c(=O)[nH]c([C@@H]6C[C@@H]7CCCC[C@@H]7N6C(=O)[C@@H](NC(=O)OC)C(C)C)nc5c4)ccc3c2)[nH]1)C(C)C [Compound 13]
[1]
  EC50: 0.36 nM
[2]
  EC50: 0.009 nM
[3]
  EC50: 0.006 nM
[4]
  CC50: > 980 nM
[5]
  CC50: > 980 nM

## COC(=O)N[C@H](C(=O)N1[C@H](c2ncc(-c3ccc4cc(-c5ccc6c(=O)[nH]c([C@@H]7C[C@@H]8CCCC[C@@H]8N7C(=O)[C@@H](NC(=O)OC)C(C)C)nc6c5)ccc4c3)[nH]2)C[C@@H]2CCCC[C@@H]21)C(C)C [Compound 14]
[1]
  EC50: 0.136 nM
[2]
  EC50: 0.021 nM
[3]
  EC50: 0.022 nM
[4]
  CC50: > 980 nM
[5]
  CC50: > 980 nM

## COC(=O)N[C@H](C(=O)N1CCC[C@H]1c1ncc(-c2ccc3cc(-c4ccc5c(=O)[nH]c([C@@H]6C[C@@H]7CCCC[C@@H]7N6C(=O)[C@@H](NC(=O)OC)C(C)C)nc5c4)ccc3c2)[nH]1)C(C)C [Compound 15]
[1]
  EC50: 0.496 nM
[2]
  EC50: 0.007 nM
[3]
  EC50: 0.006 nM
[4]
  CC50: > 980 nM
[5]
  CC50: > 980 nM
